This passage reports TGI and GI50 results from PubChem BioAssay (NCI).

Where “and” joins values, the source holds several entries; their conditions need not be identical. Identical values can stand only once.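 Assay format: 96-well plates, 48-hour exposure. Abbreviation: GI50, concentration required for 50% inhibition of growth. The concentration for full growth arrest is given as TGI.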

What all share (experiment): NCI anticancer screen, dose series, 48 h
Assay [1] deals with TK-10 renal.
Assay [2] relates to PC-3 prostate.
Assay [3] concerns NCI-H460 lung.
Assay [4] relates to M14 melanoma.
Assay [5] deals with CCRF-CEM leukemia.
The subject of assay [6] is SF-268 CNS.
Assay [7] concerns UO-31 renal.
Assay [8] has as its system UACC-257 melanoma.
The test system of assay [9] is KM12 colon.
Assay [10] concerns CAKI-1 renal.

On to `c1ccc(CN2CCC(=NN3CCCCC3)CC2)cc1`, for which the TGI in assay [1], in assay [2], in [3], in assay [4], in [5] and in assay [6] was above 100 µM throughout. Further, the TGI in assay [7], in assay [8], in [9] and in [10] was above 100 µM throughout.

Regarding `Cc1cc(C)cc(Nc2nnc3n2S(=O)(=O)c2cc(C)c(Cl)cc2S3)c1`, the TGI is 38.5 µM in assay [1]; 10.1 µM in assay [2]; 24.8 µM in assay [3]; 33.4 µM in [4]; above 100 µM in [5]; 31.1 µM in assay [6]. For the same compound, the TGI in assay [7] is above 100 µM; in assay [8] it was 30.5 µM; in assay [9], 33.2 µM; in [10], above 100 µM.

Regarding `CC12NC(=C(C#N)C#N)C(C#N)=C3NC(N)=C(C#N)C(=C31)Oc1ccccc12` (stereo unspecified), the TGI in assay [1], in [2], in [3], in [4], in [5] and in assay [6] was above 100 µM throughout. Further, the TGI in assay [7], in assay [8], in assay [9] and in [10] was above 100 µM in each case.

Turning to `O=[N+]([O-])c1cc(Br)cc2cc(Cl)cnc12`, the TGI in [1], in [2], in [3], in [4], in assay [5] and in assay [6] was above 100 µM in each case. Besides, the TGI in assay [7], in [8], in assay [9] and in [10] was above 100 µM in each case.

Take `CN(C)CCCNC(=O)N/N=C/c1ccc(O)cc1`: the TGI in [1], in [2], in [3], in assay [4], in [5] and in assay [6] was above 100 µM each time. For the same compound, the TGI in assay [7], in [8], in assay [9] and in assay [10] was above 100 µM each time.

Turning to `C=C1CC[C@@]2(C)[C@@H]([C@@H]1C)[C@H]1CC[C@@H]3[C@@]4(C)CC[C@H](O)C(C)(C)[C@@H]4CC[C@@]3(C)[C@]1(C)C[C@@H]2O`, the TGI in assay [1] was 27 µM; in assay [2], 10.3 µM; in [3], 4.7 µM; in [4], 32.7 µM; in assay [5] it was above 100 µM; in assay [6] it was 9.76 µM. For the same compound, the TGI is 5.67 µM in assay [7], 31.3 µM in assay [8], 15.8 µM in assay [9] and 5.59 µM in [10].

On to `COc1ccc(C=Nc2ccc(-c3nc4ccccc4s3)cc2)cc1OC`, for which the TGI in [1] is 69 µM; in assay [2], 69.9 µM; in [3], 67.6 µM; in [4], above 100 µM; in [5], 55 µM; in assay [6], above 100 µM. In addition, the TGI in [7] is above 100 µM; in assay [8], 61 µM; in assay [9], above 100 µM; in assay [10], above 100 µM.

For the compound `O=[N+]([O-])c1cc(C2(N3CCCCC3)CCCCC2)sc1Br`, the TGI in assay [1] stood at 6.61 µM; in [2], 13.1 µM; in [3], 29.5 µM; in assay [4], 21.9 µM; in assay [5], 7.33 µM; in assay [6], 28.1 µM. The TGI in assay [7] was found to be 24.6 µM; in assay [8], 4.51 µM; in [9], 20.2 µM; in assay [10], 15.6 µM.

For `c1ccc(-c2cnc(SC(c3ccccc3)c3ccccc3)[nH]2)cc1`, the TGI in assay [1] is above 100 µM; in assay [2] it was 84.7 µM; in assay [3] it was 46.8 µM; in assay [4], above 100 µM; in [5], above 100 µM; in assay [6] it was above 100 µM. Also, the TGI in assay [7] is above 100 µM; in [8], 55.5 µM; in [9], above 100 µM; in assay [10], above 100 µM.

Regarding `CN(C(=O)[C@H](NC(=O)OCc1ccccc1)c1ccccc1)C1CCCCC1N1CCCC1` (stereo partly specified), the TGI in assay [1] is above 100 µM; in assay [2] it was above 100 µM; in assay [3] it was above 100 µM; in [4], 56.4 µM; in assay [5], above 100 µM; in assay [6], above 100 µM. Further, the TGI in assay [7] is above 100 µM; in [8], 63.2 µM; in [9], above 100 µM; in [10], above 100 µM.

As to `Cn1c(N/N=C/c2ccccc2)nc(-c2ccc3c(c2)OCO3)c(C#N)c1=O`, the TGI in [1], in [2], in [3], in assay [4], in [5] and in [6] was above 100 µM each time. Moreover, the TGI in assay [7], in assay [8], in assay [9] and in assay [10] was above 100 µM each time.

As to `O=C(N/N=C(/COc1ccccc1)N=Cc1ccncc1)c1ccncc1`, the TGI in assay [1], in [2], in [3], in assay [4], in assay [5] and in assay [6] was above 100 µM throughout. For the same compound, the TGI in assay [8], in [9] and in [10] was above 100 µM each time.

As for `CCN(CC)CCNc1c2ccccc2nc2cccc([N+](=O)[O-])c12`, the TGI in assay [1] is 0.0813 µM; in assay [2] it was 0.0122 µM; in [3], 0.0186 µM; in assay [4], 0.0188 µM and 0.0245 µM; in assay [5], 0.48 µM; in [6], 0.056 µM and 0.42 µM. Moreover, the TGI in assay [7] was 0.0412 µM and 0.252 µM; in [8], 0.0502 µM and 0.065 µM; in assay [10], 0.0254 µM and 0.0721 µM. Besides, the GI50 in [6] is 0.0193 µM; in assay [7], 0.0712 µM; in assay [8], 0.022 µM.
